Reference: patent publication US20250382277A1, “SMALL MOLECULE INHIBITORS OF DYRK/CLK AND USES THEREOF” (Arizona Board of Regents on Behalf of the University of …, priority 2022, published 2025)

Key:
[1] = test system: WNT signaling; assay: WNT reporter assay (TopGFP reporter); assay type: cell-based; conditions: Human Colonic Epithelial Cells (HCEC) with TopGFP reporter, stimulated with 10 μM CHIR99021, 24 hours
Excerpt: KDs were obtained from Eurofins.

[2] = biological target: DYRK1A (Homo sapiens, UniProt Q13627); assay: biochemical
Description: KDs were obtained from Eurofins. The KdELECT Kinase Assay Panel enables quantitated compound binding affinity against any kinase assay. Inhibitor binding constants (Kd values) are calculated from duplicate 11-point dose-response curves. Measurements are made under optimized conditions that generate true thermodynamic Kd values which facilitate direct comparison of inhibitor affinity across kinases.

EC50 [1]	Kd [2]	Compound
100 to 1000 nM	< 100 nM	Fc1cc(-c2ncnc3ccc(-c4c[nH]c5ncccc45)cc23)ccc1N1CCNCC1 [Compound 33, 4-(3-fluoro-4-(piperazin-1-yl)phenyl)-6-(1H-pyrrolo[2,3-b]pyridin-3-yl)quinazoline]
> 1000 nM	< 100 nM	Nc1cc(-c2ccc3ncnc(-c4cccc(CN5CCOCC5)c4)c3c2)ccn1 [Compound 8, 4-(4-(3-(morpholinomethyl)phenyl)quinazolin-6-yl)pyridin-2-amine]
< 100 nM	< 100 nM	[2H]C([2H])([2H])N1CCN(c2ccc(-c3ncnc4ccc(-c5ccnc(N)c5)cc34)cc2F)CC1 [Compound 51, 4-(4-(3-fluoro-4-(4-(methyl-d3)piperazin-1-yl)phenyl)quinazolin-6-yl)pyridin-2-amine]
100 to 1000 nM	< 100 nM	Nc1nccc(-c2ccc3ncnc(-c4ccc(N5CCOCC5)c(F)c4)c3c2)n1 [Compound 15, 4-(4-(3-fluoro-4-morpholinophenyl)quinazolin-6-yl)pyrimidin-2-amine]
< 100 nM	< 100 nM	Nc1cc(-c2ccc3ncnc(-c4ccc(N5CCN(C(=O)C6CC6)CC5)c(F)c4)c3c2)ccn1 [Compound 53, (4-(4-(6-(2-aminopyridin-4-yl)quinazolin-4-yl)-2-fluorophenyl)piperazin-1-yl)(cyclopropyl)methanone]
< 100 nM	< 100 nM	Nc1cc(-c2ccc3ncnc(-c4ccc(N5CCN(C6CCOCC6)CC5)c(F)c4)c3c2)ccn1 [Compound 55, 4-(4-(3-fluoro-4-(4-(tetrahydro-2H-pyran-4-yl)piperazin-1-yl)phenyl)quinazolin-6-yl)pyridin-2-amine]
> 1000 nM	< 100 nM	Nc1cc(-c2ccc3ncnc(-c4ccnc(N5CCOCC5)c4)c3c2)ccn1 [Compound 14, 4-(4-(2-morpholinopyridin-4-yl)quinazolin-6-yl)pyridin-2-amine]
> 1000 nM		CN[C@H]1CCN(c2ccc(-c3ncnc4ccc(-c5ccnc(N)c5)cc34)cc2F)C1 [Compound 60, (S)-4-(4-(3-fluoro-4-(3-(methylamino)pyrrolidin-1-yl)phenyl)quinazolin-6-yl)pyridin-2-amine]
100 to 1000 nM		Nc1cc(-c2ccc3ncnc(-c4ccc(N5CC6(C5)CN(C5COC5)C6)c(F)c4)c3c2)ccn1 [Compound 57, 4-(4-(3-fluoro-4-(6-(oxetan-3-yl)-2,6-diazaspiro[3.3]heptan-2-yl)phenyl)quinazolin-6-yl)pyridin-2-amine]
100 to 1000 nM	< 100 nM	Nc1cc(-c2ccc3ncnc(-c4ccc(CN5CCOCC5)c(F)c4)c3c2)ccn1 [Compound 3, 4-(4-(3-fluoro-4-(morpholinomethyl)phenyl)quinazolin-6-yl)pyridin-2-amine]
100 to 1000 nM	< 100 nM	CN1CCN(c2c(F)cc(-c3ncnc4ccc(-c5ccnc(N)c5)cc34)cc2F)CC1 [Compound 31, 4-(4-(3,5-difluoro-4-(4-methylpiperazin-1-yl)phenyl)quinazolin-6-yl)pyridin-2-amine]
100 to 1000 nM	< 100 nM	CC(=O)N1C[C@@H]2C[C@H]1CN2c1ccc(-c2ncnc3ccc(-c4ccnc(N)c4)cc23)cc1 [Compound 39, 1-((1S,4S)-5-(4-(6-(2-aminopyridin-4-yl)quinazolin-4-yl)phenyl)-2,5-diazabicyclo[2.2.1]heptan-2-yl)ethan-1-one]
< 100 nM	< 100 nM	CS(=O)(=O)N1CCN(c2ccc(-c3ncnc4ccc(-c5ccnc(N)c5)cc34)cc2F)CC1 [Compound 47, 4-(4-(3-fluoro-4-(4-(methylsulfonyl)piperazin-1-yl)phenyl)quinazolin-6-yl)pyridin-2-amine]
> 1000 nM	< 100 nM	CC1(C)CN(c2ncc(-c3ncnc4ccc(-c5ccnc(N)c5)cc34)cc2F)CCO1 [Compound 20, 4-(4-(6-(2,2-dimethylmorpholino)-5-fluoropyridin-3-yl)quinazolin-6-yl)pyridin-2-amine]
< 100 nM	< 100 nM	Nc1cc(-c2ccc3ncnc(-c4ccc(N5CCN(C6COC6)CC5)c(F)c4)c3c2)ccn1 [Compound 56, 4-(4-(3-fluoro-4-(4-(oxetan-3-yl)piperazin-1-yl)phenyl)quinazolin-6-yl)pyridin-2-amine]
	< 100 nM	Nc1cc(-c2ccc3ncnc(-c4cc(F)cc(N5CCOCC5)c4)c3c2)ccn1 [Compound 5, 4-(4-(3-fluoro-5-morpholinophenyl)quinazolin-6-yl)pyridin-2-amine]
< 100 nM		CN1CCN(c2ccc(-c3ncnc4ccc(-c5ccnc(N)c5)cc34)cc2Cl)CC1 [Compound 62, 4-(4-(3-chloro-4-(4-methylpiperazin-1-yl)phenyl)quinazolin-6-yl)pyridin-2-amine]
100 to 1000 nM	< 100 nM	Nc1cc(-c2ccc3ncnc(-c4ccc(N5CC6(COC6)C5)c(F)c4)c3c2)ccn1 [Compound 28, 4-(4-(3-fluoro-4-(2-oxa-6-azaspiro[3.3]heptan-6-yl)phenyl)quinazolin-6-yl)pyridin-2-amine]
< 100 nM		CC(=O)N1CCN(c2ccc(-c3ncnc4ccc(-c5cn[nH]c5)cc34)cc2)CC1 [Compound 37, 1-(4-(4-(6-(1H-pyrazol-4-yl)quinazolin-4-yl)phenyl)piperazin-1-yl)ethan-1-one]

EC50 [1]	Kd [2]	Compound
< 100 nM	< 100 nM	Nc1cc(-c2ccc3ncnc(-c4ccc(N5CCN(C6COC6)CC5)cc4)c3c2)ccn1 [Compound 42, 4-(4-(4-(4-(oxetan-3-yl)piperazin-1-yl)phenyl)quinazolin-6-yl)pyridin-2-amine]
100 to 1000 nM	< 100 nM	CN1CCN(c2ncc(-c3ncnc4ccc(-c5c[nH]c6ncccc56)cc34)cc2F)CC1 [Compound 26, 4-(5-fluoro-6-(4-methylpiperazin-1-yl)pyridin-3-yl)-6-(1H-pyrrolo[2,3-b]pyridin-3-yl)quinazoline]
< 100 nM	< 100 nM	Nc1cc(-c2ccc3ncnc(-c4ccc(N5CCOCC5)c(F)c4)c3n2)ccn1 [Compound 12, 4-(4-(3-fluoro-4-morpholinophenyl)pyrido[3,2-d]pyrimidin-6-yl)pyridin-2-amine]
< 100 nM		Nc1cc(-c2ccc3ncnc(-c4ccc(N5CCN(CC6COC6)CC5)c(F)c4)c3c2)ccn1 [Compound 64, 4-(4-(3-fluoro-4-(4-(oxetan-3-ylmethyl)piperazin-1-yl)phenyl)quinazolin-6-yl)pyridin-2-amine]
100 to 1000 nM	< 100 nM	Nc1cc(-c2ccc3ncnc(-c4cnc(N5CCC6(CCNC6=O)CC5)c(F)c4)c3c2)ccn1 [Compound 30, 8-(5-(6-(2-aminopyridin-4-yl)quinazolin-4-yl)-3-fluoropyridin-2-yl)-2,8-diazaspiro[4.5]decan-1-one]
100 to 1000 nM	< 100 nM	Nc1cc(-c2ccc3ncnc(-c4ccc(N5CCOCC5)c(F)c4)c3c2)ccn1 [Compound 1, 4-(4-(3-fluoro-4-morpholinophenyl)quinazolin-6-yl)pyridin-2-amine]
	< 100 nM	Nc1cc(-c2ccc3ncnc(-c4ccc(N5CCOCC5)nc4)c3c2)ccn1 [Compound 10, 4-(4-(6-morpholinopyridin-3-yl)quinazolin-6-yl)pyridin-2-amine]
100 to 1000 nM	< 100 nM	CC(=O)N1CCN(c2ccc(-c3ncnc4ccc(-c5ccnc(N)c5)cc34)cc2F)CC1 [Compound 34, 1-(4-(4-(6-(2-aminopyridin-4-yl)quinazolin-4-yl)-2-fluorophenyl)piperazin-1-yl)ethan-1-one]
< 100 nM	< 100 nM	CC(=O)N1CCN(c2ccc(-c3ncnc4ccc(-c5ccnc(N)c5)cc34)cc2)CC1 [Compound 22, 1-(4-(4-(6-(2-aminopyridin-4-yl)quinazolin-4-yl)phenyl)piperazin-1-yl)ethan-1-one]
< 100 nM	< 100 nM	COC(=O)N1CCN(c2ccc(-c3ncnc4ccc(-c5ccnc(N)c5)cc34)cc2F)CC1 [Compound 52, methyl 4-(4-(6-(2-aminopyridin-4-yl)quinazolin-4-yl)-2-fluorophenyl)piperazine-1-carboxylate]
< 100 nM		CC(=O)N1CC2(C1)CN(c1ccc(-c3ncnc4ccc(-c5ccnc(N)c5)cc34)cc1F)C2 [Compound 58, 1-(6-(4-(6-(2-aminopyridin-4-yl)quinazolin-4-yl)-2-fluorophenyl)-2,6-diazaspiro[3.3]heptan-2-yl)ethan-1-one]
100 to 1000 nM		Nc1cc(-c2ccc3nccc(-c4cnc(N5CCOCC5)c(F)c4)c3c2)ccn1 [Compound 13, 4-(4-(5-fluoro-6-morpholinopyridin-3-yl)quinolin-6-yl)pyridin-2-amine]
< 100 nM		CS(=O)(=O)N1CCN(c2ccc(-c3ncnc4ccc(-c5ccnc(N)c5)cc34)cc2Cl)CC1 [Compound 59, 4-(4-(3-chloro-4-(4-(methylsulfonyl)piperazin-1-yl)phenyl)quinazolin-6-yl)pyridin-2-amine]
	> 1000 nM	Nc1cc(-c2ccc3ncnc(-c4ccc(CN5CCOCC5)cc4)c3c2)ccn1 [Compound 18, 4-(4-(4-(morpholinomethyl)phenyl)quinazolin-6-yl)pyridin-2-amine]
	< 100 nM	Nc1cc(-c2ccc3ncnc(-c4ccc(N5CCS(=O)(=O)CC5)cc4)c3c2)ccn1 [Compound 6, 4-(4-(6-(2-aminopyridin-4-yl)quinazolin-4-yl)phenyl)thiomorpholine 1,1-dioxide]
	< 100 nM	CN1CCN(c2ccc(-c3ncnc4ccc(-c5ccnc(N)c5)cc34)cc2)CC1 [Compound 7, 4-(4-(4-(4-methylpiperazin-1-yl)phenyl)quinazolin-6-yl)pyridin-2-amine]
< 100 nM		CS(=O)(=O)N1CCN(c2ccc(-c3ncnc4ccc(-c5ccnc(N)c5)cc34)cc2C(F)(F)F)CC1 [Compound 63, 4-(4-(4-(4-(methylsulfonyl)piperazin-1-yl)-3-(trifluoromethyl)phenyl)quinazolin-6-yl)pyridin-2-amine]
100 to 1000 nM		Cc1cc(-c2ncnc3ccc(-c4ccnc(N)c4)cc23)ccc1N1CCN(C)CC1 [Compound 61, 4-(4-(3-methyl-4-(4-methylpiperazin-1-yl)phenyl)quinazolin-6-yl)pyridin-2-amine]
